Measurements: patent US7947505B2, “Method for testing efficacy of antithrombotic agent” (priority 2005, dated 2011)
Where two headings read alike, the source gives them in different places.

What was measured:
whole blood = conditions: ADP final concentration 8.3 μM or collagen 10 μg/mL, mean±standard deviation, cited from earlier work; for M A (maximum amplitude): in mm (unit assumed)
blood [1] = assay: Thromboelastograph of blood with no antithrombotic agent administered, with heparin or argatroban with or without ADP or collagen added; type: cell-based, human; conditions: for change of the R value lengthened by anticoagulant when ADP or collagen is added: blood coagulation function normal, no antithrombotic agent administered, heparin or argatroban present
From the text: (§1) The present invention is described below based on embodiments. The thromboelastograph will be described first. A thromboelastograph is an apparatus that tracks the process of blood coagulation by the clot elasticity in whole blood. […] The reaction time R representing the time when the range of the clot elasticity value reaches 2 mm, the coagulation time K representing the time when the range of the clot elasticity value reaches 20 mm, the maximum amplitude MA of the range of the clot elasticity values, the angle ANG formed by a tangent drawn on the graph of the changes in clot elasticity, and the like are obtained as numerical values based on the measurement chart, as shown in FIG. 1. The measurement procedure itself merely comprises placing the blood in a cuvette and beginning measurement. A C-TEG3000T machine made by Haemoscope of the United States was used as the thromboelastograph in the examples below.
(§2) The test method using the thromboelastograph will be described next in itemized form. 1) A thromboelastograph is used in measurement. The thromboelastograph used is one in which the measurement part has two or more channels, and the amount of fluid measured is 0.36 mL. 2) The blood of the patient being administered an antithrombotic agent is sampled by a blood sampling tube for coagulation testing. […] 3) 0.02 mL of 0.2 M calcium chloride and 0.32 mL of blood from the blood sampling tube are mixed with 0.01 mL of anticoagulant and 0.01 mL of physiological saline in the first measurement part (first channel) of the thromboelastograph. The calcium chloride neutralizes the citric acid admixed in the blood sampling tube, and coagulation begins. 4) 0.02 mL of 0.2 M calcium chloride and 0.32 mL of blood from the blood sampling tube are mixed with 0.01 mL of anticoagulant and 0.01 mL of adenosine diphosphate (ADP) or collagen in the second measurement part (second channel) of the thromboelastograph. The adenosine diphosphate (ADP) used here is 0.2 μmol of commercial reagent powder dissolved in 0.67 mL of physiological saline. Similarly, the collagen is 1 mg/mL stock solution diluted to a 36% solution by physiological saline. 5) The first channel and second channel are measured simultaneously by the thromboelastograph, and the R values measured on the thromboelastograph are compared. […] It is necessary in this case to strengthen the antithrombotic effect by measures such as increasing the dose or changing the antithrombotic agent being administered. The platelets in the second channel are believed to be readily activated by the ADP or collagen, and blood coagulation is accelerated. […] It is believed in this case that the platelets in the second channel are not readily activated by the ADP or collagen, and blood coagulation is not accelerated.
(§3) In the following examples and comparative examples, the addition of 0.02 mL of physiological saline of 0.2 M calcium chloride to the sampled blood and the addition of […] to the system without ADP or collagen added are common to all examples and are omitted from the explanations of each example and comparative example.
An example of the administration of sulpyrine will be described next. […] The measurement was the same as in Example 1. Blood with 0.1 U/mL of heparin or 0.31 μg/mL of argatroban added and blood with 8.3 μM of ADP or 10 μg/mL of collagen added to these were measured simultaneously by using a thromboelastograph.
An example of the administration of Pletaal will be described next. […] The amounts of heparin, argatroban, ADP, and collagen added were the same as in Example 2.
As a comparative example, blood obtained when no thrombotic agent (*1) had been administered was measured by thromboelastograph. Specifically, systems of heparin, ADP, and collagen added to blood that contained no thrombotic agent and, similarly, systems of argatroban, ADP, and collagen added to blood that contained no thrombotic agent were measured using a thromboelastograph.

blood [2] = conditions: Hep 0.1 U/mL, ARG 0.3 μg/mL, Col 10 μg/mL, ADP 8.3 μM/L, cited from earlier work
[3] = test system: blood sampled from a patient being administered an antithrombotic agent; assay: Thromboelastograph of blood sampled after administration of an antithrombotic agent, with anticoagulant with or without ADP or collagen added; type: in vivo, human; conditions: for R value: ADP 8.3 μM, collagen 10 μg/mL
From the text: as §1, §2, §3
An example of the administration of aspirin as an antithrombotic agent will be described. First, 81 mg/day of aspirin was administered for three days. Blood sampled one hour after oral administration of 40.5 mg of aspirin thereafter was measured using a thromboelastograph. Specifically, thromboelastographic measurements were simultaneously carried out on the sampled blood itself, the same blood with 0.1 U/mL of heparin or 0.31 μg/mL of argatroban added, and blood obtained by adding 8.3 μM of ADP or 10 μg/mL of collagen to these.
Also, 660 mg/day of aspirin was administered for three days, and the blood sampled one hour after oral administration of 330 mg thereafter was measured in the same manner by using a thromboelastograph. […]

[4] = Comparative Example, blood with no antithrombotic agent administered
[5] = no Pletaal administered (Example 3), heparin 0.1 U/mL, argatroban 0.31 μg/mL, ADP 8.3 μM, collagen 10 μg/mL
[6] = no sulpyrine administered (Example 2), heparin 0.1 U/mL, argatroban 0.31 μg/mL, ADP 8.3 μM, collagen 10 μg/mL

Nc1ncnc2c1ncn2[C@@H]1O[C@H](COP(=O)(O)OP(=O)(O)O)[C@@H](O)[C@H]1O [ADP, adenosine diphosphate]
M A (maximum amplitude) (whole blood): 57.9 ± 2.6
change of the R value lengthened by anticoagulant when ADP or collagen is added (blood [1]): shortens significantly

CC1CNc2c(cccc2S(=O)(=O)N[C@@H](CCCNC(=N)N)C(=O)N2CC[C@@H](C)C[C@@H]2C(=O)O)C1 (stereo partly shown) [ARG, argatroban]
A N G (rapidity of clot formation) (blood [2]): 44.5 ± 14.6
K (blood [2]): 9.8 ± 5.1
R (blood [2]): 29.8 ± 11.5
K (blood [2]; listed as argatroban): lengthen
R (blood [2]; listed as argatroban): lengthen
R value (blood [1]; [4]): 29.8 ± 11.5
R value (blood [1]; Comparative Example, blood with no antithrombotic agent administered, listed as argatroban): lengthens
R value (blood [1]; [5]): 29.7 ± 10.5
R value (blood [1]; [6]): 29.8 ± 9.5

CC(=O)Oc1ccccc1C(=O)O [ASP, aspirin]
assessment of efficacy of the administered dose (R value shortened by ADP and collagen or not) ([3]; 81 mg/day of aspirin for three days): insufficient to function effectively
R value ([3]; 81 mg/day of aspirin for three days, blood sampled one hour after oral 40.5 mg, heparin 0.1 U/mL, argatroban 0.31 μg/mL): 6.4 ± 1.5
assessment of efficacy of the administered dose (R value shortened by ADP and collagen or not) ([3]; 660 mg/day of aspirin for three days): function adequately
R value ([3]; 660 mg/day of aspirin for three days, blood sampled one hour after oral 330 mg, heparin 0.1 U/mL, argatroban 0.31 μg/mL): 6.67 ± 1.7

O=C1CCc2cc(OCCCCc3nnnn3C3CCCCC3)ccc2N1 [Cil, cilostazol]
assessment of efficacy of the administered dose (R value shortened by ADP and collagen or not) ([3]; 200 mg/day of Pletaal): functions adequately
R value ([3]; 200 mg/day of Pletaal for five days, blood sampled one hour after oral 100 mg, heparin 0.04 U/mL, argatroban 0.06 μg/mL): 14.5 ± 3.7
time until the blood begins to coagulate ([3]; Pletaal administered, 0.1 U/mL of heparin and 0.31 μg/mL of argatroban used, R value could not be determined): more than 3 hours

Cc1c(N(C)CS(=O)(=O)[O-])c(=O)n(-c2ccccc2)n1C.[Na+] [Sulp, sulpyrine]
assessment of efficacy of the administered dose (R value shortened by ADP and collagen or not) ([3]; 250 mg of sulpyrine injected intramuscularly): functions adequately
R value ([3]; blood sampled one hour after intramuscular injection of 250 mg of sulpyrine, heparin 0.1 U/mL, argatroban 0.31 μg/mL): 6.9 ± 2.1

collagen [Col.]
K (time it takes a clot to be formed) (whole blood; in min (unit assumed)): 2.5 ± 0.5
R (time it takes for fibrin to be formed) (whole blood; in min (unit assumed)): 5.3 ± 1.4
M A (maximum amplitude) (whole blood): 57.9 ± 3.9
K (time it takes a clot to be formed) (whole blood; listed as collagen): no significant difference
R (time it takes for fibrin to be formed) (whole blood; listed as collagen): shortens significantly
R + K (whole blood; listed as collagen): shortens significantly
R + K (whole blood): 7.8 ± 1.5
change of the R value lengthened by anticoagulant when ADP or collagen is added (blood [1]): shortens significantly

heparin
A N G (rapidity of clot formation) (blood [2]): 39.1 ± 13.9
K (blood [2]): 11.4 ± 6.2
R (blood [2]): 26.4 ± 10.6
K (blood [2]; listed as heparin): lengthen
R (blood [2]; listed as heparin): lengthen
R value (blood [1]; [4]): 26.4 ± 10.6
R value (blood [1]; Comparative Example, blood with no antithrombotic agent administered, listed as heparin): lengthens
R value (blood [1]; [5]): 28.6 ± 9.5
R value (blood [1]; [6]): 26.4 ± 10.6
